Test results from patent US20230085307A1, “PYRIDAZINONE COMPOUND AND HERBICIDE” (NISSAN CHEMICAL CORPORATION, priority 2019, published 2023).

Key:
[1] = tested on: wild oat; assay: Test Example 5: herbicidal effect by foliage application, plastic box (Table 20, symbol I); format: in vivo, wild oat (Avena fatua); conditions: foliage application, AAH 320 g/ha, three weeks after application
Procedure, shortened: (§1)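 Foliar spray test: emulsion formulation diluted in water to a set application rate, sprayed onto 14-day-old plants raised in diluvial soil at 25° C to 30° C under glass. Both herbicidal effect and crop effect rated visually three weeks later.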

[2] = tested on: blackgrass; assay: Test Example 5: herbicidal effect by foliage application, plastic box (Table 20, symbol J); format: in vivo, blackgrass (Alopecurus myosuroides); conditions: foliage application, AAH 320 g/ha, three weeks after application
Procedure, shortened: as §1

[3] = tested on: green foxtail; assay: Test Example 5: herbicidal effect by foliage application, plastic box (Table 20, symbol G); format: in vivo, green foxtail (Setaria viridis); conditions: foliage application, AAH 320 g/ha, three weeks after application
Procedure, shortened: as §1

[4] = tested on: windgrass; assay: Test Example 4: herbicidal effect by soil treatment (Table 19, symbol L); format: in vivo, windgrass (Apera spica-venti); conditions: amount of applied herbicide 320 g/ha
Procedure, shortened: (§2)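 Herbicidal effect was rated 3 weeks after treatment, using the scoring criteria of an earlier test. The compound, formulated as an emulsion and diluted in water to a set herbicide amount, had been sprayed uniformly on soil over freshly sown seeds. Growth took place in a greenhouse at 25° C. to 30° C.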

[5] = tested on: Chinese sprangletop; assay: Test Example 3: herbicidal effect by foliage application, Wagner pot (Table 18, symbol D); format: in vivo, chinese sprangletop (Leptochloa chinensis); conditions: 320 g/ha
Procedure, shortened: (§3)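 Plants were sown in alluvial soil held under 0.1–0.5 cm standing water and grown 14 days in a greenhouse at 25–30 °C. An emulsifiable formulation, water-diluted to the set dose, was then sprayed onto the foliage, and effects were scored three weeks later using previously defined criteria.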

[6] = tested on: Italian ryegrass; assay: Test Example 5: herbicidal effect by foliage application, plastic box (Table 20, symbol K); format: in vivo, Italian ryegrass (Lolium multiflorum); conditions: foliage application, AAH 320 g/ha, three weeks after application
Procedure, shortened: as §1

[7] = tested on: barnyard grass; assay: Test Example 5: herbicidal effect by foliage application, plastic box (Table 20, symbol H); format: in vivo, barnyard grass (Echinochloa crus-galli); conditions: foliage application, AAH 320 g/ha, three weeks after application
Procedure, shortened: as §1

[8] = tested on: southern crabgrass; assay: Test Example 4: herbicidal effect by soil treatment (Table 19, symbol F); format: in vivo, southern crabgrass (Digitaria ciliaris); conditions: amount of applied herbicide 320 g/ha
Procedure, shortened: as §2

[9] = tested on: velvetleaf; assay: Test Example 5: herbicidal effect by foliage application, plastic box (Table 20, symbol M); format: in vivo, velvetleaf (Abutilon theophrasti); conditions: foliage application, AAH 320 g/ha, three weeks after application
Procedure, shortened: as §1

[10] = tested on: late watergrass; assay: Test Example 2: herbicidal activity, application during weed generation under submerged conditions (Table 17, symbol A); format: in vivo, late watergrass (Echinochloa oryzicola); conditions: AAH 320 g/ha; application during weed generation, submerged conditions
Procedure, shortened: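 Wagner pot, alluvial soil, 4 cm flood; mixed sowing of all species; greenhouse 25° C.–30° C. Emulsifiable formulation, water-diluted to predetermined dose, applied to paddy water at 1–2 leaf stage. Effect rated at 3 wk using the earlier test's scoring criteria.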

[11] = tested on: lambsquarters; assay: Test Example 4: herbicidal effect by soil treatment (Table 19, symbol O); format: in vivo, lambsquarters (Chenopodium album); conditions: amount of applied herbicide 320 g/ha
Procedure, shortened: as §2

[12] = tested on: rice flat sedge; assay: Test Example 3: herbicidal effect by foliage application, Wagner pot (Table 18, symbol E); format: in vivo, rice flat sedge (Cyperus iria); conditions: 320 g/ha
Procedure, shortened: as §3

[13] = tested on: chickweed; assay: Test Example 4: herbicidal effect by soil treatment (Table 19, symbol P); format: in vivo, common chickweed (Stellaria media); conditions: amount of applied herbicide 320 g/ha
Procedure, shortened: as §2

[14] = tested on: Italian ryegrass; assay: Test Example 4: herbicidal effect by soil treatment (Table 19, symbol K); format: in vivo, Italian ryegrass (Lolium multiflorum); conditions: amount of applied herbicide 320 g/ha
Procedure, shortened: as §2

[15] = tested on: wild oat; assay: Test Example 4: herbicidal effect by soil treatment (Table 19, symbol I); format: in vivo, wild oat (Avena fatua); conditions: amount of applied herbicide 320 g/ha
Procedure, shortened: as §2

[16] = tested on: Japanese bulrush; assay: Test Example 1: herbicidal activity, application before weed generation under submerged conditions (Table 16, symbol B); format: in vivo, Japanese bulrush (Schoenoplectus juncoides); conditions: 320 g/ha applied herbicide
Procedure, shortened: (§4)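 Alluvial soil was flooded to 4 cm depth, weed seeds were sown mixed and 2.5-leaf rice seedlings were transplanted. On sowing day, the compound's emulsion, diluted in water to a set dose, was applied to the water surface. Plants grew at 25–30 °C and were scored 0–5 after three weeks.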

[17] = tested on: late watergrass; assay: Test Example 1: herbicidal activity, application before weed generation under submerged conditions (Table 16, symbol A); format: in vivo, late watergrass (Echinochloa oryzicola); conditions: 320 g/ha applied herbicide
Procedure, shortened: as §4

SMILES	I: wild oat, herbicidal effect [1]	J: blackgrass, herbicidal effect [2]	G: green foxtail, herbicidal effect [3]	herbicidal effect rating, L: windgrass [4]	herbicidal effect on D (Chinese sprangletop), rating 0-5 [5]	K: Italian ryegrass, herbicidal effect [6]	H: barnyard grass, herbicidal effect [7]	herbicidal effect rating, F: southern crabgrass [8]	M: velvetleaf, herbicidal effect [9]	herbicidal effect rating, A: late watergrass [10]	herbicidal effect rating, O: lambsquarters [11]	herbicidal effect on E (rice flat sedge), rating 0-5 [12]	herbicidal effect rating, P: chickweed [13]	herbicidal effect rating, K: Italian ryegrass [14]	herbicidal effect rating, I: wild oat [15]	Herbicidal effect on B: Japanese bulrush (grade 0-5) [16]	Herbicidal effect on A: late watergrass (grade 0-5) [17]
CCCC(=O)Oc1c(C)nn(C)c(=O)c1-c1c(-c2ccc3c(c2)OCCO3)sc2ccccc12 [1-090]	0 (Herbicidal rate of 5% or less (almost no effect))	2 (Herbicidal rate of 20% or more and less than 40%)	5 (Herbicidal rate of 90% or more (almost completely withered))	0 (Herbicidal rate of 5% or less (almost no effect))	1 (Herbicidal rate of 5% or more and less than 20%)	3 (Herbicidal rate of 40% or more and less than 70%)	4 (Herbicidal rate of 70% or more and less than 90%)	0 (Herbicidal rate of 5% or less (almost no effect))	4 (Herbicidal rate of 70% or more and less than 90%)	4 (Herbicidal rate of 70% or more and less than 90%)	2 (Herbicidal rate of 20% or more and less than 40%)	5 (Herbicidal rate of 90% or more (almost completely withered))	4 (Herbicidal rate of 70% or more and less than 90%)	0 (Herbicidal rate of 5% or less (almost no effect))	0 (Herbicidal rate of 5% or less (almost no effect))	4 (Herbicidal rate of 70% or more and less than 90%)	5 (Herbicidal rate of 90% or more (almost completely withered))
COC(=O)Oc1c(C)nn(C)c(=O)c1-c1c(-c2ccc3c(c2)OCCO3)sc2ccccc12 [1-091]	2 (Herbicidal rate of 20% or more and less than 40%)	3 (Herbicidal rate of 40% or more and less than 70%)	5 (Herbicidal rate of 90% or more (almost completely withered))	0 (Herbicidal rate of 5% or less (almost no effect))	1 (Herbicidal rate of 5% or more and less than 20%)	4 (Herbicidal rate of 70% or more and less than 90%)	5 (Herbicidal rate of 90% or more (almost completely withered))	3 (Herbicidal rate of 40% or more and less than 70%)	5 (Herbicidal rate of 90% or more (almost completely withered))	3 (Herbicidal rate of 40% or more and less than 70%)	4 (Herbicidal rate of 70% or more and less than 90%)	5 (Herbicidal rate of 90% or more (almost completely withered))	5 (Herbicidal rate of 90% or more (almost completely withered))	0 (Herbicidal rate of 5% or less (almost no effect))	0 (Herbicidal rate of 5% or less (almost no effect))	4 (Herbicidal rate of 70% or more and less than 90%)	5 (Herbicidal rate of 90% or more (almost completely withered))
Cc1nn(C)c(=O)c(-c2c(-c3ccc4c(c3)OCCO4)sc3ccccc23)c1OC(=O)SC(C)(C)C [1-092]	0 (Herbicidal rate of 5% or less (almost no effect))	0 (Herbicidal rate of 5% or less (almost no effect))	3 (Herbicidal rate of 40% or more and less than 70%)	0 (Herbicidal rate of 5% or less (almost no effect))	1 (Herbicidal rate of 5% or more and less than 20%)	0 (Herbicidal rate of 5% or less (almost no effect))	3 (Herbicidal rate of 40% or more and less than 70%)	0 (Herbicidal rate of 5% or less (almost no effect))	5 (Herbicidal rate of 90% or more (almost completely withered))	3 (Herbicidal rate of 40% or more and less than 70%)	0 (Herbicidal rate of 5% or less (almost no effect))	5 (Herbicidal rate of 90% or more (almost completely withered))	0 (Herbicidal rate of 5% or less (almost no effect))	0 (Herbicidal rate of 5% or less (almost no effect))	0 (Herbicidal rate of 5% or less (almost no effect))	3 (Herbicidal rate of 40% or more and less than 70%)	5 (Herbicidal rate of 90% or more (almost completely withered))
